# In publication PMC11642016 (International Journal of Molecular Sciences, 2024):
# What was measured:
# PANC-1 and Fadu cells = assay: CellTiter-Glo viability, statements covering both cancer cell lines; type: cell-based, human; conditions: Homo sapiens; 25 µM; in either of the cancer cell lines; read-out: drop in viability at 25 µM
# Protocol: The effects of the synthesized compounds on cell viability were measured using the CellTiter-Glo® luminescent cell viability assay (Promega, Madison, WI, USA), according to the manufacturer’s instructions. […] After seeding, cells were incubated for a further 48 h before treatment. Cells were treated with the compounds for 72 h. […] After treatment, the luminescence signal was recorded using a microplate reader (BioTek Synergy 2 Multi-Mode Reader, BioTek, Winooski, VT, USA).
# PANC-1 cells = assay: CellTiter-Glo luminescent cell viability assay, PANC-1; conditions: Homo sapiens, PANC-1, 72 h, 72 h, first-set screening, mean ± SD, n = 2; for viability at 2.8 µM: read-out: Cell Viability (% of Control) 2.8 µM, PANC-1; for viability at 8.3 µM: read-out: Cell Viability (% of Control) 8.3 µM, PANC-1; for viability at 25 µM: read-out: Cell Viability (% of Control) 25 µM, PANC-1
# Fadu cells = assay: CellTiter-Glo luminescent cell viability assay, Fadu; conditions: Homo sapiens, FaDu, 72 h, 72 h, first-set screening, mean ± SD, n = 2; for viability at 2.8 µM: read-out: Cell Viability (% of Control) 2.8 µM, Fadu; for viability at 8.3 µM: read-out: Cell Viability (% of Control) 8.3 µM, Fadu; for viability at 25 µM: read-out: Cell Viability (% of Control) 25 µM, Fadu
SMILES,viability at 25 µM (PANC-1 and Fadu cells) [%],viability at 2.8 µM (PANC-1 cells) [%],viability at 8.3 µM (PANC-1 cells) [%],viability at 25 µM (PANC-1 cells) [%],viability at 2.8 µM (Fadu cells) [%],viability at 8.3 µM (Fadu cells) [%],viability at 25 µM (Fadu cells) [%]
NCC#Cc1ccc(CN2C(=O)C3=C(CCN(Cc4cccc(-n5cc(-c6ccccc6)nn5)c4)C3)N3CCN=C23)cc1 [3b],0 to 1,103 ± 8,84 ± 2,0,103 ± 2,95 ± 3,22 ± 4
NCC#Cc1cccc(CN2C(=O)C3=C(CCN(Cc4cccc(-n5cc(-c6ccccc6)nn5)c4)C3)N3CCN=C23)c1 [4b],0 to 1,87 ± 5,70,0,76 ± 1,34 ± 3,0
